This passage reports Ki results from ChEMBL document CHEMBL6083178, “Chemistry and pharmacological aspects of furanoid cannabinoids and related compounds: Is furanoid cannabinoids open a new dimension towards the non-psychoactive cannabinoids?” (Eur J Med Chem, 2024).

Assay [1] deals with T1, Cannabinoid receptor 1 (Homo sapiens, UniProt P21554). The assay is described as follows: Displacement of [3H]CP55940 from CB1 receptor (unknown origin) assessed as inhibition constant measured after 90 mins. (In general: Loss of bound radioactivity is the signal in a displacement assay; it reports binding, not function.)
The target of assay [2] is T2, Cannabinoid receptor 2 (Homo sapiens, UniProt P34972). As to the kind of experiment: Binding affinity to CB2 receptor (unknown origin) assessed as inhibition constant measured after 90 mins.
For assay [3], the target named is Cannabinoid receptor 1 (Mus musculus, UniProt P47746). As to the kind of experiment: Displacement of [3H]CP55940 from mouse brain CB1 receptor assessed as inhibition constant.
In assay [4] the target is T2, Cannabinoid receptor 2. As to the kind of experiment: Displacement of [3H]HU-243 from human CB2 receptor assessed as inhibition constant.
The target in assay [5] is T1, Cannabinoid receptor 1. As to the kind of experiment: Displacement of [3H]CP55940 from human CB1 receptor assessed as inhibition constant.

T1 sequence (P21554 whole entry): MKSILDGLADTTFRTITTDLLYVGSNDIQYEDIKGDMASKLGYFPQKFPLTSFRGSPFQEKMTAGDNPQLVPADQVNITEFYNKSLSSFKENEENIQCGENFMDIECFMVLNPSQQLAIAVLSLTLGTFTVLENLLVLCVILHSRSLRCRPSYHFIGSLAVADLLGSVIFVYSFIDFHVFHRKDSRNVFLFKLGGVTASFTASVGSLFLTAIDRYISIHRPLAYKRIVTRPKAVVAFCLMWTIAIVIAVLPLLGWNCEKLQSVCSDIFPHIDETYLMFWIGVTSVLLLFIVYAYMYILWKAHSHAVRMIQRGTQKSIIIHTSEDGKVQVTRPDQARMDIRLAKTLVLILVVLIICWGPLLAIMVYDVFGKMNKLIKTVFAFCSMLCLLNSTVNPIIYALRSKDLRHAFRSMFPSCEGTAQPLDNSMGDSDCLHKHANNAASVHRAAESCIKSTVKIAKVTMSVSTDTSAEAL
T2 sequence (P34972 whole entry): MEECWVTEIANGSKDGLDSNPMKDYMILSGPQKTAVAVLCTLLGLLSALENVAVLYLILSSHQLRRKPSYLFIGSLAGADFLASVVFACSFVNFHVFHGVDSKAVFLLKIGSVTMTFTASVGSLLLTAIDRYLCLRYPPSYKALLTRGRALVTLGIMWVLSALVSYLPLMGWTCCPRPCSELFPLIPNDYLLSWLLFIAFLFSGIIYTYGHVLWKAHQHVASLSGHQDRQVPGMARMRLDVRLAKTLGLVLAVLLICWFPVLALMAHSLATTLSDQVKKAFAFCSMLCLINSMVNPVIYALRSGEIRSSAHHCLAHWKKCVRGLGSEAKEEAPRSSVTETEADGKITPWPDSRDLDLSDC
Chain of Cannabinoid receptor 1 (Mus musculus, UniProt P47746) (P47746 whole entry): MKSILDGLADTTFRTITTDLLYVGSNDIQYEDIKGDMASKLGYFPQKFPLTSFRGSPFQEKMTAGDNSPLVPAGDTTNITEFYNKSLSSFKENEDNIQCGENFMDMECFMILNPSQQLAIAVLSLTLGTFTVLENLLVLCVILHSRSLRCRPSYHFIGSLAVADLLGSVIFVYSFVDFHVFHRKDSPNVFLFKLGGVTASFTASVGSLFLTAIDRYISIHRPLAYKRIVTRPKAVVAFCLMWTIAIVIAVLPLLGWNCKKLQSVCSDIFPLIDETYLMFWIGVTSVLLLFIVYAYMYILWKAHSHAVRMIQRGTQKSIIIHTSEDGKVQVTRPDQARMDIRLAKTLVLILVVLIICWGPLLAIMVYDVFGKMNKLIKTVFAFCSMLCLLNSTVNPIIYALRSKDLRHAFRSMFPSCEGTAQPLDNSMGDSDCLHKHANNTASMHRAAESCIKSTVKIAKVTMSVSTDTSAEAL

As usually defined, the Ki is a dissociation constant, usually derived from enzyme kinetics or from competition with a known ligand. In the case of `CCCCCc1cc(O)c2c(c1)OC(C)(CCC=C(C)C)C=C2` (configuration not stated) [CANNABICHROMENE], the Ki was found to be 0.7 µM at Cannabinoid receptor 1 [1] and 0.2 µM at Cannabinoid receptor 2 [2].

On to `C=C(C)[C@@H]1CCC(C)=C[C@H]1c1c(O)cc(CCCCC)cc1O` [CANNABIDIOL], for which the Ki on Cannabinoid receptor 1 [3] turned out to be 4.4 µM.

Consider `CCCCCc1cc(O)c(C/C=C(\C)CCC=C(C)C)c(O)c1` [CANNABIGEROL], for which the Ki on Cannabinoid receptor 2 [4] turned out to be 0.1 µM; at Cannabinoid receptor 1 [5], 0.4 µM.

Turning to `CCCCCc1cc(O)c2c(c1)OC(C)(C)c1ccc(C)cc1-2` [CANNABINOL], the Ki on Cannabinoid receptor 1 [5] turned out to be 0.1 µM.

In the case of `CCCc1cc(O)c2c(c1)OC(C)(C)[C@@H]1CCC(C)=C[C@@H]21` [TETRAHYDROCANNABIVARIN], the inhibition constant Ki at Cannabinoid receptor 1 [5] came to 0.08 µM.
